This note sets out measurements from patent publication US20100256147A1, “BIARYL ACETAMIDE DERIVATIVES AS MODULATORS OF THE KINASE CASCADE FOR THE TREATMENT OF HEARING LOSS, OSTEOPOROSIS AND CELL PROLIFERATION DISORDERS” (priority 2007, published 2010).

Where only a bound is given, the exact number is not on record here.

Holding throughout (assay type): cell-based
One assay deals with c-Src527F/NIH 3T3. Nature of the assay: BrdU cell growth inhibition, c-Src527F/NIH 3T3. As to conditions: Mus musculus, NIH3T3; c-Src527F/NIH 3T3 cells; read-out: c-Src527F/NIH 3T3 GI 50. How it is done: (§1) The GI50s for the compounds of the invention is assayed as described herein.
The c-Src 3T3 is a mouse fibroblast NIH 3T3 normal cell line that has been transfected with a point-mutant of human c-Src wherein tyrosine 527 has been converted to a phenylalanine. This mutation results in “constitutively active” c-Src because phosphorylation on tyrosine 527 results in auto-inhibition of Src by having it fold back on its own SH2 domain. With a Phe there, this phosphorylation can't occur and therefore auto-inhibition can't occur. Thus, the always fully active mutant Src then converts the normal mouse fibroblasts into rapidly growing tumor cells. […]
In the BrdU Assay for cell growth inhibition, quantitation of cell proliferation is based on the measurement of BrdU incorporation during DNA synthesis. […]
The growth inhibition (G1) is determined from the formula G1=(T0−Tr×100/T0−CONn) where T0 is the BrdU growth of untreated cells at time “0”, Tn, is the BrdU growth of treated cells at day “n” and CONn is the control BrdU growth of control cells at day “n”. […]
(§2) Seeded 96 well plates are allowed to attach overnight for 18-24 hours, either at 37° C. and 5% CO2 for HT-29 or at 37° C. and 10% CO2 for c-Src 3T3. Approx 18-24 hours after seeding, the initial growth of cells (T0) is determined for untreated cells using the BrdU assay. […] Plates are assayed for BrdU and the data is analyzed as above for GI50.

In a further assay the test system is Ba/F3-JAK3. Nature of the assay: Ba/F3-JAK3 cell growth inhibition. Particulars: Ba/F3-JAK3 cells.
The next assay relates to HT29. The assay is described as follows: BrdU cell growth inhibition, HT29. Particulars: Homo sapiens, HT-29; HT29 cells; read-out: HT29 GI 50. On the procedure: as §1
The HT29 cell line is a NCI standard human colon carcinoma cell line. HT-29 cells are obtained from ATCC at passage 125 and are used for inhibition studies between passage 126-151. HT29 cells are routinely cultured in McCoy's 5A medium supplemented with Fetal Bovine Serum (1.5% v/v) and L-glutamine (2 mM).
In the BrdU Assay for cell growth inhibition, quantitation of cell proliferation is based on the measurement of BrdU incorporation during DNA synthesis. The Cell Proliferation ELISA BrdU assay kit (colorimetric) is obtained from Roche Applied Science and performed as per vendor instructions.
The growth inhibition (G1) is determined from the formula G1=(T0−Tr×100/T0−CONn) where T0 is the BrdU growth of untreated cells at time “0”, Tn, is the BrdU growth of treated cells at day “n” and CONn is the control BrdU growth of control cells at day “n”. The GI50 is extrapolated and the data plotted using XL-Fit 4.0 software. […]
as §2

The subject of the next assay is Ba/F3-JAK2. The assay is described as follows: Ba/F3-JAK2 cell growth inhibition. Particulars: Ba/F3-JAK2 cells.
The next assay has as its system Hep 3B. The assay is described as follows: MTT growth inhibition, Hep 3B. As to conditions: Homo sapiens, Hep3B, 8.0×10^3 cells/wells, 1.5% FBS, 78 Hr, normalized response data. How it is done: (§3) Samples of the test compounds are formulated in 100% DMSO to obtain 20 mM stock solutions; stored @ 4° C. The IC50s and IC80s are determined as described below. Huh7, WRL-68, PLC/PRF/5, Hep 3B, and Hep G2 human cancer lines are routinely cultured and maintained in a basal medium containing 2% FBS @ 37° C., 5% CO2. Cells are seeded @ 4.0×10^3/190 μl and 8.0×10^3/190 μl per well of a 96-well plate. The assay medium is basal medium/1.5% FBS. […] The test article dilutions are prepared as follows: 20 mM stock solution samples are diluted serially in basal medium/1.5% FBS using 1:3 dilutions, yielding 20× concentrations; 131 μM to 0.24 nM range. 10 μL of 20× dilutions are added to the appropriate wells (n=3) containing 190 μL cancer cell line; 6561 nM to 0.012 nM range of final concentrations. Vehicle control contains cells, no sample. Medium control contains cells, no sample, 0.03% DMSO (highest DMSO concentration present in samples). The treated cells are incubated for 72 hours at 37° C., 5% CO2. On day 3, 10 μL MTT (5 mg/mL) are added to each well. Cells are incubated in the presence of MTT for 4 hours @ 37° C., 5% CO2. 90 μL 10% SDS(+HCl) is added to each well to lyse cells and solubilize formazan.

Another assay deals with HuH7. The assay is described as follows: MTT growth inhibition, HuH7. As to conditions: Homo sapiens, Huh-7, 8.0×10^3 cells/wells, 1.5% FBS, 78 Hr, normalized response data. How it is done:
as §3, with “formazan. […] OD570 measurements are taken, e.g., using BioTek Synergy HT multiplatform microplate reader. Growth inhibition curves IC50s and IC80s are determined using GraphPad Prism 5 statistical software.” for “formazan.”

For another assay, the system named is 786-O. Nature of the assay: Tumor growth inhibition, 786-O. As to conditions: Homo sapiens, 786-0, read-out: Dasatinib GI50, renal cell adenocarcinoma.
The subject of a further assay is PLC/PRF/5. Nature of the assay: MTT growth inhibition, PLC/PRF/5. As to conditions: Homo sapiens, 8.0×10^3 cells/wells, 1.5% FBS, 78 Hr, normalized response data. How it is done:
as §3

Another assay deals with ACHN. Nature of the assay: Tumor growth inhibition, ACHN. Particulars: Homo sapiens, read-out: Dasatinib GI50, renal cell adenocarcinoma.
The next assay concerns 769-P. Nature of the assay: Tumor growth inhibition, 769-P. Particulars: Homo sapiens, read-out: Dasatinib GI50, renal cell adenocarcinoma.
The next assay deals with Caki-2. Nature of the assay: Tumor growth inhibition, Caki-2. As to conditions: Homo sapiens, read-out: Dasatinib GI50; Caki-2, clear cell carcinoma.
For assay [1], the system named is known Src protein substrates. The assay is described as follows: Phosphorylation of Src substrates in HT29 cells. As to conditions: human colon cancer cells (HT29). How it is done: (§4) Compounds of the invention may be Src signaling inhibitors that bind in the Src peptide substrate site. The activity of various compounds of the invention has been studied in c-Src (527F, constitutively active and transforming) transformed NIH3T3 cells and in human colon cancer cells (HT29).
(§5) HT29 (colon cancer) and c-Src527F/NIH-3T3 (Src transformed) cell lines are treated with a compound of the invention or with AstraZeneca's ATP competitive Src inhibitor AZ28 (KX2-328). AZ28 serves as a positive comparator to show what a validated Src inhibitor should do in these assays. After treatment with compound, cells are lysed, subjected to PAGE and probed with a battery of antibodies. […] In addition, off-target protein phosphorylation is also investigated. Further, induction of apoptosis is evaluated via Caspase 3 cleavage. Multiple doses of each compound are tested because the trends in response to increasing drug concentration are the most reliable indicator of activity.
(§6) A dose response curve is generated using the GI50 for the compounds of the invention in each of the two cell lines as the 1× concentration. […] The same range of multiples of the GI50 for AZ28 in these two cell lines are run as a comparison.

Assay [2] has as its system known Src protein substrates. Nature of the assay: Phosphorylation of Src substrates in c-Src (527F) transformed NIH3T3 cells. How it is done:
as §4, §5, §6

In general, IC50 refers to the concentration that gives 50% inhibition. For `C[C@@H](NC(=O)Cc1ccc(-c2ccc(OCCN3CCOCC3)cc2F)nc1)C1CCCCC1`, the GI50 in the assay on c-Src527F/NIH 3T3 was 1.23 µM; with HT29, 1.06 µM. For the same compound, the figures for the IC50 with Ba/F3-JAK3 and with Ba/F3-JAK2 were 1.29 µM and 2.08 µM, respectively.

Regarding `O=C(Cc1ccc(-c2ccc(OCCN3CCOCC3)cc2F)nc1)NCCC1CCCC1`, the values for the GI50 with c-Src527F/NIH 3T3 and in the assay on HT29 were 1.16 µM and 1.23 µM, respectively. Moreover, the results for the IC50 with Ba/F3-JAK3 and with Ba/F3-JAK2 were 1.2 µM and 1.31 µM, respectively.

One may read the IC80 as the point of the concentration-response curve where the effect stands at 80%. Regarding `Cc1nc(Nc2ncc(C(=O)Nc3c(C)cccc3Cl)s2)cc(N2CCN(CCO)CC2)n1` [Dasatinib], the IC80 in the assay on Hep 3B was more than 50 µM; with HuH7 it was 7.13 µM; in the assay with PLC/PRF/5 it was more than 50 µM. The IC50 with HuH7 came to 1.97 µM. For the same compound, the GI50 in the assay with 786-O was 2.01 µM; in the assay with ACHN it was 0.0211 µM; in the assay with 769-P, 0.0463 µM; in the assay on Caki-2, 0.0142 µM.

On to `O=C(Cc1ccc(-c2ccc(OCCN3CCOCC3)cc2)cn1)NCc1ccccc1` [KX2-391], for which the “phosphorylation level of known Src protein substrates” value in assay [1] and in assay [2] was “reduce the phosphorylation level of known Src protein substrates in a dose-dependent fashion” each time.
